Experimental data from paper PMC12810351, “Structure-effect relationship of phenolic compounds on α-amylase inhibition studied by isothermal titration calorimetry” (Current Research in Food Science, 2025).
Where two headings read alike, the source gives them in different places.

Key:
[1] = target: T1, porcine pancreatic α-amylase (Sus scrofa, UniProt P00690); test: starch hydrolysis by α-amylase monitored by isothermal titration calorimetry (ITC); assay type: biochemical; details: for inhibition mechanism suggested by Kic/Kiu ratios: polyphenol standards
T1 sequence (P00690 16-511): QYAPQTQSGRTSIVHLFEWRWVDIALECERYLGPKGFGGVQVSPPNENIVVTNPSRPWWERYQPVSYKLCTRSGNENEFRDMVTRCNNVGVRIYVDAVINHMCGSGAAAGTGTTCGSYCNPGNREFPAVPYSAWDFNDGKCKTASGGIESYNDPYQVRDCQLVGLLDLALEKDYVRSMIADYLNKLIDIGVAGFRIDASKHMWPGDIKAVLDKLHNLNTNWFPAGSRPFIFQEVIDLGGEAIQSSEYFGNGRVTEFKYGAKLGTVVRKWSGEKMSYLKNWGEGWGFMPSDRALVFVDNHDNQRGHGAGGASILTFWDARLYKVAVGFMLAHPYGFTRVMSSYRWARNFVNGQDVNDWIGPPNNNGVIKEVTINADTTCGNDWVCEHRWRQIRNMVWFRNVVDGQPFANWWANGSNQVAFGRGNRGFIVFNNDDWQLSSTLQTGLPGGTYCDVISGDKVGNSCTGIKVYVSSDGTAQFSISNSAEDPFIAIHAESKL
Method: The amylase stock solution was diluted each day and stored during the day at 4 °C.
The experiments were conducted using an Affinity ITC LV instrument with a cell volume of 182 μL (TA Instruments, Eschborn, Germany). […] These controls were conducted to determine the optimal injection volume to achieve maximal velocity (vmax) (S11). […] Enzyme kinetic constants were determined at 310 K.
The heat released during starch conversion was continuously monitored, with calculations performed using Microsoft Excel® software. The enzymatic rate (v) is directly proportional to the measured thermal power (eq (1)).(1) v=dP/dt=1/Vcell·ΔRHapp·dQ/dt
The reaction enthalpy ( ΔRHapp ) is determined by integrating the heat peak over its entire duration, divided by the number of substrate molecules converted:(2) ΔRHapp=∫t=0∞dQ/dtdt/nS
(dQ/dt)max [%], ΔRHapp [%] und vmax [%] are calculated in relation to daily control.
The substrate concentration at time t ([S]t) is calculated according to eq (3).(3) [S]t=∫t∞dQ/dtdt/∫0∞dQ/dtdt·[S]t=0
Therefore, the thermogram contains all the required data for calculating inhibition constants. The maximal conversion rate vmax and the Michaelis-Menten constant Km are determined from control experiments conducted in the absence of an inhibitor. In the presence of an inhibitor [I] the apparent values of vmaxapp and Kmapp are obtained. Competitive inhibition (Kic, eq (5)) is due to the formation of an enzyme-inhibitor complex (EI), whereas uncompetitive inhibition (Kiu, eq (5)) occurs when an inhibitor binds to a […]:(5) Kic=vmaxapp/Kmapp·[I]/(vmax/Km)−(vmaxapp/Kmapp)Kiu=vmaxapp·[I]/vmax−vmaxapp
The IC50 value, a key pharmacological metric, is used to compare the potency of inhibitors. […] The conversion rate (v0) was calculated from the thermogram according to eq (1), and subsequently plotted against the […]

α-amylase [2] = details: substrate starch, DNS UV/Vis, cited from earlier work; for Ki: read-out: Kic
α-amylase [3] = target: α-amylase; design: method as in Kaeswurm et al. (2019); details: substrate GalG2CNP, CNP UV/Vis, ref Kaeswurm et al. (2019), cited from earlier work
α-amylase [4] = target: α-amylase; design: method as in Narita and Inouye (2011); details: substrate G2-pNP, pNP UV/Vis, ref Narita and Inouye (2011), cited from earlier work
α-amylase [5] = target: α-amylase; design: key to Kic [μM] / Kiu [μM] / IC50 [μM]: “–” no inhibition; details: substrate starch, PAHBAH UV/Vis, cited from earlier work
α-amylase [6] = target: α-amylase; design: method as in Zheng et al. (2020); details: substrate starch, D-glucose assay UV/Vis, ref Zheng et al. (2020), cited from earlier work
[7] = calculated based on the mass concentration
[8] = 100 μM polyphenol, 26 nM α-amylase, starch, 310 K, relative to control without inhibitor, read-out: (dQ/dt)max [%]
[9] = 100 μM polyphenol, relative to control, read-out: vmax [%]
[10] = calculated based on the mass concentration, read-out: IC50 [g/L] (converted)
[11] = calculated based on the mass concentration, read-out: Kic [g/L] (converted)
[12] = calculated based on the mass concentration, read-out: Kiu [g/L] (converted)
[13] = competitive inhibition constant, substrate starch, ITC, 100 μM polyphenol (EGCG 25 μM), read-out: Kic
[14] = substrate starch, ITC, calculated by eq (6), substrate concentration of 1 M (IC50 equivalent to Kiu), read-out: IC50*
[15] = uncompetitive inhibition constant, substrate starch, ITC, 100 μM polyphenol (EGCG 25 μM), read-out: Kiu
[16] = ref Souza Schmidt Gonçalves et al. (2010)

Compound	α (Kic/Kiu) [1, 7]	remaining activity at 100 µM [1, 8] [%]	remaining activity at 100 µM [1, 9] [%]	IC50 [1, 10] [µM]	Ki [1, 11] [µM]	Ki [1, 12] [µM]	Ki [1, 13] [µM]	IC50 [1, 14] [µM]	Ki [1, 15] [µM]	inhibition mechanism suggested by Kic/Kiu ratios [1]	inhibition type ([1]; substrate starch, ITC)	also measured
Oc1cc(O)c2c(c1)O[C@H](c1ccc(O)c(O)c1)[C@@H](O)C2 [CAT, (+)-catechin]	0.75 ± 0.40											IC50 [1, 7]: 120 ± 50 µg/mL; Kic [1, 7]: 0.10 ± 0.06 g/L; Kiu [1, 7]: 0.14 ± 0.06 g/L
Oc1cc(O)c2c(c1)O[C@H](c1ccc(O)c(O)c1)[C@H](O)[C@H]2c1c(O)cc(O)c2c1O[C@H](c1ccc(O)c(O)c1)[C@@H](O)C2 [PC B1, procyanidin B1]	0.71 ± 0.20	66 ± 14	66 ± 9	190	156	225	155 ± 79	219 ± 91	219 ± 91			
O=C(/C=C/c1ccc(O)c(O)c1)O[C@@H]1C[C@](O)(C(=O)O)C[C@@H](O)[C@H]1O [CA, Chlorogenic acid]	0.70 ± 0.03		72 ± 6	198	198	282	195 ± 68	278 ± 100	279 ± 100	preferentially bind to the enzyme	mixed	IC50 (α-amylase [2]; [16]): 3.9 µM; IC50 (α-amylase [3]): 413 µM; Ki (α-amylase [3]; read-out: Kic): 406 µM; Ki (α-amylase [3]; read-out: Kiu): 413 µM; remaining activity at 100 µM ([1]; read-out: (dQ/dt)max [%]): 77 ± 5%; IC50 (α-amylase [4]): 400 µM; Ki (α-amylase [4]; read-out: Kic): 1120 µM; Ki (α-amylase [4]; read-out: Kiu): 270 µM
Oc1cc(O)c2c(c1)O[C@H](c1ccc(O)c(O)c1)[C@H](O)[C@H]2c1c(O)cc(O)c2c1O[C@H](c1ccc(O)c(O)c1)[C@H](O)C2 [PC B2, procyanidin B2]	0.94 ± 0.13	56 ± 4	62 ± 4	121	121	121	177 ± 39	173 ± 26	173 ± 26			reversibility of inhibition (from ΔRHapp) ([1]; 100 μM polyphenol (EGCG 25 μM)): irreversible aggregation
OC[C@H]1O[C@@H](Oc2cc3c(O)cc(O)cc3[o+]c2-c2ccc(O)c(O)c2)[C@H](O)[C@@H](O)[C@@H]1O [CYD-3-glc, cyanidin-3-O-glucoside]	0.71 ± 0.05	74 ± 10	65 ± 4		156	223	143 ± 30	200 ± 34	201 ± 34	preferentially bind to the enzyme	mixed	IC50 (α-amylase [2]; ref Akkarachiyasit et al., (2010)): 300 µM; IC50 (α-amylase [2]; ref Sui et al. (2016)): 240 µM; Ki (α-amylase [2]; ref Sui et al. (2016)): 140 µM; IC50 (α-amylase [5]; ref Le et al. (2024)): 340 µM; Ki (α-amylase [5]; ref Le et al. (2024), read-out: Kic): 390 µM; Ki (α-amylase [5]; ref Le et al. (2024), read-out: Kiu): 210 µM
COc1cc(/C=C/C(=O)O)ccc1O [FA, ferulic acid]	0.67 ± 0.30	94 ± 12	95 ± 3		1240	2370	1240 ± 235	2350 ± 1470	2360 ± 1480		mixed	IC50 (α-amylase [6]): 3200 µM; Ki (α-amylase [6]; read-out: Kic): 3400 µM; Ki (α-amylase [6]; read-out: Kiu): 3630 µM; IC50 (α-amylase [2]; ref Aleixandre et al. (2022)): > 5150 µM; IC50 (α-amylase [4]): 5450 µM; Ki (α-amylase [4]; read-out: Kic): 11200 µM; Ki (α-amylase [4]; read-out: Kiu): 4870 µM
O=C(CCc1ccc(O)cc1)c1c(O)cc(O)cc1O[C@@H]1O[C@H](CO)[C@@H](O)[C@H](O)[C@H]1O [PHL, phlorizin]	0.76 ± 0.08	83 ± 4	89 ± 7	504	412	573	418 ± 127	572 ± 145	573 ± 145		mixed	IC50 [μM] (α-amylase [5]; ref Li et al. (2019)): –; Kic [μM] (α-amylase [5]; ref Li et al. (2019)): –; Kiu [μM] (α-amylase [5]; ref Li et al. (2019)): –; IC50 (α-amylase [3]): 391 µM; Ki (α-amylase [3]; read-out: Kic): 151 µM; Ki (α-amylase [3]; read-out: Kiu): 391 µM
Oc1cc(O)c2c(c1)O[C@H](c1ccc(O)c(O)c1)[C@H](O)[C@H]2c1c(O)cc(O)c2c1O[C@H](c1ccc(O)c(O)c1)[C@H](O)[C@H]2c1c(O)cc(O)c2c1O[C@H](c1ccc(O)c(O)c1)[C@H](O)C2 [PC C1, procyanidin C1]	0.90 ± 0.12	44 ± 4	50 ± 4	104	92.3	104	94 ± 26	103 ± 16	103 ± 16			reversibility of inhibition (from ΔRHapp) ([1]; 100 μM polyphenol (EGCG 25 μM)): irreversible aggregation
C[C@@H]1O[C@@H](OC[C@H]2O[C@@H](Oc3c(-c4ccc(O)c(O)c4)oc4cc(O)cc(O)c4c3=O)[C@H](O)[C@@H](O)[C@@H]2O)[C@H](O)[C@H](O)[C@H]1O [rutin, quercetin-3-O-rutinoside]	0.28 ± 0.12	90 ± 6	92 ± 4	770	360	1560	354 ± 55	1540 ± 855	1560 ± 872	preferentially bind to the enzyme	mixed	Ki (α-amylase [2]; ref Li et al. (2009)): 8.96 µM; IC50 (α-amylase [2]; [16]): 1.2 µM
O=c1c(O[C@@H]2O[C@H](CO)[C@@H](O)[C@H](O)[C@H]2O)c(-c2ccc(O)c(O)c2)oc2cc(O)cc(O)c12 [Q-3-glc, quercetin-3-O-glucoside]	0.65 ± 0.07	72 ± 9	63 ± 4	151	108	172	115 ± 16	178 ± 28	179 ± 28	preferentially bind to the enzyme	mixed	Ki (α-amylase [2]; ref Li et al. (2009)): 5.35 µM
Oc1cc(O)c2c(c1)O[C@H](c1ccc(O)c(O)c1)[C@H](O)C2 [EC, (−)-epicatechin]	0.74 ± 0.10	82 ± 8	78 ± 4	482	379	517	253 ± 47	385 ± 82	385 ± 82	preferentially bind to the enzyme		
